How the values were obtained:
Assay type in all cases: physicochemical
[1] = pH stability of the phenolate in water (color change purple to yellow-brown)
Method: 1 gram of 1R,6R CBD was dissolved in 6.6 milliliters of 0.5 molar potassium hydroxide (0.5 M KOH) in ethanol to produce 2-[(1R,6R)-6-isopropenyl-3-methylcyclohex-2-en-1-yl]-3-hydroxy-5-pentylphenolate. The solution was then diluted with 100 millimolar sodium carbonate (100 mM Na2CO3) in water to a final volume of 50 milliliters and a 2-[(1R,6R)-6-isopropenyl-3-methylcyclohex-2-en-1-yl]-3-hydroxy-5- pentylphenolate concentration of approximately 20 grams per liter. 0.5 milliliters of the 2-[(1R,6R)-6-isopropenyl-3-methylcyclohex-2-en-1-yl]-3-hydroxy-5-pentylphenolate solution was added to each of 25 test tubes containing 9.5 milliliters of 0.1 molar carbonate/bicarbonate (CO3^2−/HCO3^−) buffer according to Table 1. Each test tube contained approximately 10 milligrams of 2-[(1R,6R)-6-isopropenyl-3-methylcyclohex-2-en-1-yl]-3-hydroxy-5-pentylphenolate at a concentration of approximately 1 gram per liter, approximately 0.66% ethanol by weight, trace potassium ion, and variable sodium ion, carbonate ion, and bicarbonate ion. pH's were confirmed by multiple different measurements. […]

[2] = Determining the approximate pKa of 1R,6R CBD by color at varying sodium bicarbonate concentration; details: distilled water with sodium bicarbonate, under the test conditions, from color change
Method: Example 2. Determining the approximate pKa of IR, 6R CBD 0.5 milliliters of the 20 gram-per-liter solution of 2-[(1R,6R)-6-isopropenyl-3-methylcyclohex-2-en-1-yl]-3-hydroxy-5-pentylphenolate described in Example 1 was diluted with 9.5 milliliters of distilled water comprising varying concentrations of sodium bicarbonate, and color was monitored as shown in Table 2. pH's were confirmed by multiple different measurements.

[3] = Commercial viability of beverages comprising the phenolate (appearance in bottled water)
Method: 20 milliliters of water was removed from a 1 liter bottle of ESSENTIA® OVERACHIEVING H2O®. ESSENTIA® OVERACHIEVING H2O® contains purified water, sodium bicarbonate, dipotassium phosphate, magnesium sulfate, and calcium chloride, and its pH was determined to be about 9.5. The 20 milliliters of removed water was replaced with 20 milliliters of the 20 gram-per-liter solution of 2-[(1R,6R)-6-isopropenyl-3-methylcyclohex-2-en-1-yl]-3-hydroxy-5-pentylphenolate, which is described in Example 1, and the bottle was hermetically sealed using the screw cap top of the bottle to produce a hermetically-sealed container comprising approximately 400 milligrams of 2-[(1R,6R)-6-isopropenyl-3-methylcyclohex-2-en-1-yl]-3-hydroxy-5-pentylphenolate. The pH of the liquid was measured and determined to be about 10. […] 5 milliliters of water was removed from a 500 milliliter bottle of DASANI® purified water.
DANSANI® purified water contains purified water, magnesium sulfate, potassium chloride, and sodium chloride, and its pH was determined to be about 7.0. The 5 milliliters of removed water was replaced with 5 milliliters of the 20 gram-per-liter solution of 2-[(1R,6R)-6-isopropenyl-3-methylcyclohex-2-en-1-yl]-3-hydroxy-5-pentylphenolate, which is described in Example 1, and the bottle was hermetically sealed using the screw cap top of the bottle to produce a hermetically-sealed container comprising approximately 100 milligrams of 2-[(1R,6R)-6-isopropenyl-3-methylcyclohex-2-en-1-yl]-3-hydroxy-5-pentylphenolate. The pH of the liquid was measured and determined to be about 9.5.
0.5 milliliters of water was removed from a 500 milliliter bottle of DASANI® purified water. DANSANI® purified water contains purified water, magnesium sulfate, potassium chloride, and sodium chloride, and its pH was determined to be about 7.0. […] The pH of the liquid was measured and determined to be about 8.5.

| Compound | pKa ([1]; suggested from absence of color change, at least in dilute aqueous solutions (alternative: kinetic trapping)) | pKa [2] | appearance of the liquid ([3]; approximately 10 milligrams in 500 milliliter bottle of DASANI purified water, pH about 8.5) | appearance of the liquid ([3]; approximately 100 milligrams in 500 milliliter bottle of DASANI purified water, pH about 9.5) | appearance of the liquid ([3]; approximately 400 milligrams in 1 liter bottle of ESSENTIA OVERACHIEVING H2O, pH about 10) | color change from purple (phenolate) to yellow-brown (1R,6R CBD) ([1]; pH's of 9.1 and above, approximately 1 gram per liter in 0.1 molar carbonate/bicarbonate buffer, approximately 0.66% ethanol) |
| --- | --- | --- | --- | --- | --- | --- |
| C=C(C)[C@@H]1CCC(C)=C[C@H]1c1c(O)cc(CCCCC)cc1O [1R,6R CBD, 2-[(1R,6R)-6-isopropenyl-3-methylcyclohex-2-en-1-yl]-5-pentylbenzene-1,3-diol, reference compound] | < 9.1 | 8 to 8.5 | – | – | – | – |
| C=C(C)[C@@H]1CCC(C)=C[C@H]1c1c(O)cc(CCCCC)cc1O [2-[(1R,6R)-6-isopropenyl-3-methylcyclohex-2-en-1-yl]-3-hydroxy-5-pentylphenolate] | – | – | transparent and lacked discernable color | transparent and purple | purple and transparent | No color change |
